Measured values taken from the supplement of paper PMC6045584.
± gives the standard deviation of the averaged measurements.

Assays:
TIOGUANINE [1] = compound: T1, Nc1nc2[nH]cnc2c(=S)[nH]1 [TIOGUANINE]; assay: surviving fraction relative to DMSO-only wells; higher = less growth inhibition; details: exposure time: 5 days
Procedure, shortened: (§1)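 Tumour cell lines were grown to log phase and seeded at 250–500 cells per well in 384-well plates. They were exposed continuously to inhibitors at 0.5, 1, 5, 10, 50, 100, 500 and 1000 nM for five days, beginning 24 hours after seeding. Surviving fraction is CellTiter-Glo luminescence normalised to the median of DMSO-only wells.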

MDV3100 = compound: CNC(=O)c1ccc(N2C(=S)N(c3ccc(C#N)c(C(F)(F)F)c3)C(=O)C2(C)C)cc1F [MDV3100]; assay: as above; details: exposure time: 5 days
Procedure, shortened: as §1

[2] = compound: Cn1cc(C2=Nc3cc(NC(=O)C(N)C4CCCCC4)cc4c3C2=CNNC4=O)cn1; assay: as above; details: exposure time: 5 days
Procedure, shortened: as §1

SNX-5422 [3] = compound: T2, CC1(C)CC(=O)c2c(C(F)(F)F)nn(-c3ccc(C(N)=O)c(N[C@H]4CC[C@H](OC(=O)CN)CC4)c3)c2C1 [SNX-5422]; assay: as above; details: exposure time: 5 days
Procedure, shortened: as §1

BI-2536 [4] = compound: T3, CC[C@@H]1C(=O)N(C)c2cnc(Nc3ccc(C(=O)NC4CCN(C)CC4)cc3OC)nc2N1C1CCCC1 [BI-2536]; assay: as above; details: exposure time: 5 days
Procedure, shortened: as §1

AFATINIB [5] = compound: T4, CN(C)C/C=C/C(=O)Nc1cc2c(Nc3ccc(F)c(Cl)c3)ncnc2cc1O[C@H]1CCOC1 [AFATINIB]; assay: as above; details: exposure time: 5 days
Procedure, shortened: as §1

CANERTINIB [6] = compound: T5, C=CC(=O)Nc1cc2c(Nc3ccc(F)c(Cl)c3)ncnc2cc1OCCCN1CCOCC1 [CANERTINIB]; assay: as above; details: exposure time: 5 days
Procedure, shortened: as §1

SAPACITABINE [7] = compound: T6, CCCCCCCCCCCCCCCC(=O)Nc1ccn([C@@H]2O[C@H](CO)[C@@H](O)[C@@H]2C#N)c(=O)n1 [SAPACITABINE]; assay: as above; details: exposure time: 5 days
Procedure, shortened: as §1

TIOGUANINE [8] = compound: T1, TIOGUANINE; assay: area under dose-response curve of surviving fraction (unscaled, Aref=0) (surviving fraction x log10(nM)); higher = more resistant; details: exposure time: 5 days; dose range 0.5-1000 nM
Procedure, shortened: (§2)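 Surviving fractions were fitted by 3-parameter logistic regression in the drc R package to give dose-response survival curves. They came from tumour cell lines treated for five days with eight inhibitor concentrations from 0.5 to 1000 nM and read by CellTiter-Glo luminescence against DMSO-only wells. The area under the curve is the unscaled activity area. It was calculated over log10 dose with Aref = 0.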

[9] = compound: Cn1cc(C2=Nc3cc(NC(=O)C(N)C4CCCCC4)cc4c3C2=CNNC4=O)cn1; assay: as above; details: exposure time: 5 days; dose range 0.5-1000 nM
Procedure, shortened: as §2

SNX-5422 [10] = compound: T2, SNX-5422; assay: as above; details: exposure time: 5 days; dose range 0.5-1000 nM
Procedure, shortened: as §2

BI-2536 [11] = compound: T3, BI-2536; assay: as above; details: exposure time: 5 days; dose range 0.5-1000 nM
Procedure, shortened: as §2

AFATINIB [12] = compound: T4, AFATINIB; assay: as above; details: exposure time: 5 days; dose range 0.5-1000 nM
Procedure, shortened: as §2

CANERTINIB [13] = compound: T5, CANERTINIB; assay: as above; details: exposure time: 5 days; dose range 0.5-1000 nM
Procedure, shortened: as §2

SAPACITABINE [14] = compound: T6, SAPACITABINE; assay: as above; details: exposure time: 5 days; dose range 0.5-1000 nM
Procedure, shortened: as §2

For SCC90 HEADNECK, which surviving fraction (TIOGUANINE [1]; 0.5 nM) is on record?
The surviving fraction was 0.874 ± 0.047.

What about the surviving fraction (TIOGUANINE [1]; 1 nM) of the same test system?
Its surviving fraction is 0.873 ± 0.057.

And the surviving fraction (TIOGUANINE [1]; 5 nM)?
Its surviving fraction is 1.16 ± 0.12.

And the surviving fraction (TIOGUANINE [1]; 10 nM)?
Its surviving fraction is 1.09 ± 0.12.

What about the surviving fraction (TIOGUANINE [1]; 50 nM) of the same test system?
The surviving fraction was 1.03 ± 0.17.

And the surviving fraction (TIOGUANINE [1]; 100 nM)?
Its surviving fraction is 1.08 ± 0.15.

What about the surviving fraction (TIOGUANINE [1]; 500 nM) of the same test system?
The surviving fraction was 0.86 ± 0.045.

What about the surviving fraction (TIOGUANINE [1]; 1000 nM) of the same test system?
Its surviving fraction is 0.743 ± 0.099.

What about the surviving fraction (MDV3100; 0.5 nM) of the same test system?
Its surviving fraction is 0.893 ± 0.093.

What about the surviving fraction (MDV3100; 1 nM) of the same test system?
Its surviving fraction is 0.91 ± 0.076.

And the surviving fraction (MDV3100; 5 nM)?
The surviving fraction was 1.04 ± 0.11.

And the surviving fraction (MDV3100; 10 nM)?
Its surviving fraction is 0.942 ± 0.1.

And the surviving fraction (MDV3100; 50 nM)?
Its surviving fraction is 1.17 ± 0.2.

And the surviving fraction (MDV3100; 100 nM)?
The surviving fraction was 1.03 ± 0.13.

What about the surviving fraction (MDV3100; 500 nM) of the same test system?
The surviving fraction was 0.86 ± 0.054.

What about the surviving fraction (MDV3100; 1000 nM) of the same test system?
The surviving fraction was 0.925 ± 0.099.

And the surviving fraction ([2]; 0.5 nM)?
Its surviving fraction is 0.92 ± 0.099.

And the surviving fraction ([2]; 1 nM)?
The surviving fraction was 0.952 ± 0.11.

And the surviving fraction ([2]; 5 nM)?
Its surviving fraction is 0.943 ± 0.12.

What about the surviving fraction ([2]; 10 nM) of the same test system?
The surviving fraction was 0.991 ± 0.014.

And the surviving fraction ([2]; 50 nM)?
The surviving fraction was 0.891 ± 0.057.

What about the surviving fraction ([2]; 100 nM) of the same test system?
Its surviving fraction is 0.702 ± 0.029.

And the surviving fraction ([2]; 500 nM)?
The surviving fraction was 0.15 ± 0.0075.

What about the surviving fraction ([2]; 1000 nM) of the same test system?
Its surviving fraction is 0.068 ± 0.0076.

And the surviving fraction (SNX-5422 [3]; 0.5 nM)?
Its surviving fraction is 1.08 ± 0.089.

What about the surviving fraction (SNX-5422 [3]; 1 nM) of the same test system?
The surviving fraction was 1.08 ± 0.071.

And the surviving fraction (SNX-5422 [3]; 5 nM)?
Its surviving fraction is 1.12 ± 0.1.

What about the surviving fraction (SNX-5422 [3]; 10 nM) of the same test system?
Its surviving fraction is 1.16 ± 0.077.

And the surviving fraction (SNX-5422 [3]; 50 nM)?
The surviving fraction was 0.225 ± 0.08.

What about the surviving fraction (SNX-5422 [3]; 100 nM) of the same test system?
Its surviving fraction is 0.155 ± 0.047.

And the surviving fraction (SNX-5422 [3]; 500 nM)?
The surviving fraction was 0.0307 ± 0.0061.

What about the surviving fraction (SNX-5422 [3]; 1000 nM) of the same test system?
The surviving fraction was 0.0383 ± 0.0015.

And the surviving fraction (BI-2536 [4]; 0.5 nM)?
The surviving fraction was 0.939 ± 0.12.

And the surviving fraction (BI-2536 [4]; 1 nM)?
The surviving fraction was 0.461 ± 0.057.

What about the surviving fraction (BI-2536 [4]; 5 nM) of the same test system?
Its surviving fraction is 0.075 ± 0.0044.

What about the surviving fraction (BI-2536 [4]; 10 nM) of the same test system?
The surviving fraction was 0.0887 ± 0.0087.

And the surviving fraction (BI-2536 [4]; 50 nM)?
The surviving fraction was 0.148 ± 0.007.

What about the surviving fraction (BI-2536 [4]; 100 nM) of the same test system?
Its surviving fraction is 0.198 ± 0.022.

And the surviving fraction (BI-2536 [4]; 500 nM)?
The surviving fraction was 0.217 ± 0.036.

And the surviving fraction (BI-2536 [4]; 1000 nM)?
Its surviving fraction is 0.138 ± 0.011.

And the surviving fraction (AFATINIB [5]; 0.5 nM)?
Its surviving fraction is 1 ± 0.04.

What about the surviving fraction (AFATINIB [5]; 1 nM) of the same test system?
Its surviving fraction is 0.907 ± 0.086.

And the surviving fraction (AFATINIB [5]; 5 nM)?
Its surviving fraction is 0.621 ± 0.036.

What about the surviving fraction (AFATINIB [5]; 10 nM) of the same test system?
The surviving fraction was 0.495 ± 0.028.

What about the surviving fraction (AFATINIB [5]; 50 nM) of the same test system?
The surviving fraction was 0.42 ± 0.08.

What about the surviving fraction (AFATINIB [5]; 100 nM) of the same test system?
The surviving fraction was 0.351 ± 0.0068.

And the surviving fraction (AFATINIB [5]; 500 nM)?
The surviving fraction was 0.288 ± 0.011.

And the surviving fraction (AFATINIB [5]; 1000 nM)?
The surviving fraction was 0.235 ± 0.011.

And the surviving fraction (CANERTINIB [6]; 0.5 nM)?
Its surviving fraction is 0.781 ± 0.13.

What about the surviving fraction (CANERTINIB [6]; 1 nM) of the same test system?
Its surviving fraction is 0.793 ± 0.056.

What about the surviving fraction (CANERTINIB [6]; 5 nM) of the same test system?
Its surviving fraction is 0.787 ± 0.018.

What about the surviving fraction (CANERTINIB [6]; 10 nM) of the same test system?
Its surviving fraction is 0.737 ± 0.064.

And the surviving fraction (CANERTINIB [6]; 50 nM)?
The surviving fraction was 0.656 ± 0.075.

And the surviving fraction (CANERTINIB [6]; 100 nM)?
Its surviving fraction is 0.564 ± 0.065.

And the surviving fraction (CANERTINIB [6]; 500 nM)?
Its surviving fraction is 0.428 ± 0.021.

What about the surviving fraction (CANERTINIB [6]; 1000 nM) of the same test system?
The surviving fraction was 0.335 ± 0.051.

And the surviving fraction (SAPACITABINE [7]; 0.5 nM)?
The surviving fraction was 0.88 ± 0.089.

What about the surviving fraction (SAPACITABINE [7]; 1 nM) of the same test system?
Its surviving fraction is 0.794 ± 0.074.

And the surviving fraction (SAPACITABINE [7]; 5 nM)?
Its surviving fraction is 0.862 ± 0.011.

And the surviving fraction (SAPACITABINE [7]; 10 nM)?
Its surviving fraction is 0.848 ± 0.053.

What about the surviving fraction (SAPACITABINE [7]; 50 nM) of the same test system?
Its surviving fraction is 1.06 ± 0.13.

And the surviving fraction (SAPACITABINE [7]; 100 nM)?
The surviving fraction was 0.953 ± 0.087.

What about the surviving fraction (SAPACITABINE [7]; 500 nM) of the same test system?
The surviving fraction was 0.853 ± 0.015.

What about the surviving fraction (SAPACITABINE [7]; 1000 nM) of the same test system?
The surviving fraction was 0.999 ± 0.064.

And the “area under dose-response curve” value (TIOGUANINE [8])?
The value was 3.22.

And the “area under dose-response curve” value [9]?
Its value is 2.53.

And the “area under dose-response curve” value (SNX-5422 [10])?
The value was 1.96.

And the “area under dose-response curve” value (BI-2536 [11])?
The value was 0.697.

And the “area under dose-response curve” value (AFATINIB [12])?
The value was 1.7.

And the “area under dose-response curve” value (CANERTINIB [13])?
The value was 2.13.

And the “area under dose-response curve” value (SAPACITABINE [14])?
The value was 3.07.
